Measured values as given in patent US11044911B2, “Phenoxyurea compound and pest control agent” (Nippon Soda Co., Ltd., priority 2018, dated 2021).

Key:
cucumber plants = assay: Test Example 14: phytotoxicity test on cucumber plants; assay type: in vivo; conditions: 300 ppm spray; for Cucumber; 1.5-leaf stage After 14 days Leaf Phytotoxicity index: index 0 (no phytotoxicity) to 10 (plant death)
Method: A test for phytotoxicity on cucumber plants was conducted as follows. A sufficient amount of chemical having a compound concentration of 300 ppm was sprayed onto cucumber plants at the 1.5-leaf stage using a glass nozzle, and they were left to stand in a greenhouse. The presence or absence of phytotoxicity was investigated after being left to stand for 14 days.
(§1) The symptoms of phytotoxicity were deformation and discoloration of leaves.

eggplants = assay: Test Example 14: phytotoxicity test on eggplants; assay type: in vivo, eggplant; conditions: 300 ppm spray; for Eggplant; 6- to 7-leaf stage After 14 days Leaf Phytotoxicity index: index 0 (no phytotoxicity) to 10 (plant death)
Description: A sufficient amount of chemical having a compound concentration of 300 ppm was sprayed onto eggplants at the 6- to 7-leaf stage using a glass nozzle, and they were left to stand in a greenhouse. The presence or absence of phytotoxicity was investigated after being left to stand for 14 days.
as §1

[1] = system: drug-resistant strain of Panonychus citri collected in Wakayama Prefecture; assay: Test Example 13: efficacy test against drug-resistant strain of Panonychus citri; assay type: in vivo; conditions: 10 days, corrected insecticidal rate
Method: (§2) 5 parts by weight of the compound of the present invention, 93.6 parts by weight of dimethylformamide and 1.4 parts by weight of polyoxyethylene alkylaryl ether were mixed and dissolved to prepare an emulsion (I) containing 5% of an active ingredient.
(§3) Insecticidal rate (%)=(number of dead insects/number of tested insects)×100
(§4) In addition, an efficacy test against a drug-resistant strain of Panonychus citri collected in Wakayama Prefecture was conducted in the following manner.
(§5) 8 adult females of a drug resistant strain of Panonychus citri were inoculated on mandarin orange leaves placed in a petri dish. Then, the emulsion (I) was diluted with water so that the concentration of the compound was 37.5 ppm or 9.4 ppm to obtain a chemical. This chemical was sprayed onto the mandarin orange leaves with a rotary spray tower. The mandarin orange leaves were placed in a thermostatic chamber at a temperature of 25° C. and a humidity of 65%. The life and death of the spider mite were investigated when 10 days had passed after the spraying, and the corrected insecticidal rate was calculated.

[2] = system: drug resistant strains of spider mites; assay: Test Example 13: summary over all drug resistant strains of spider mites; assay type: in vivo, Tetranychus urticae, Panonychus citri; conditions: 9.4 ppm, all strains tested
Method: (§6) Efficacy tests against seven drug-resistant strains of Tetranychus urticae collected from various parts of Japan (one strain from Shizuoka Prefecture, Aomori Prefecture and Fukuoka Prefecture, and two strains from Chiba Prefecture and Nagano Prefecture) were conducted in the following manner.
as §5, with “drug-resistant strains” for “a drug resistant strain”, “spider mites” for “Panonychus citri”, “kidney bean plant” for “mandarin orange”, “the” for “the corrected”
as §4
8 adult females of a drug resistant strain of Panonychus citri were inoculated on mandarin orange leaves placed in a petri dish. […] The life and death of the spider mite were investigated when 10 days had passed after the spraying, and the corrected insecticidal rate was calculated.

[3] = system: drug-resistant strains of Tetranychus urticae; assay: Test Example 13: efficacy test against drug-resistant strains of Tetranychus urticae; assay type: in vivo; conditions: 10 days
Description: as §2, §3, §6
as §5, with “drug-resistant strains” for “a drug resistant strain”, “spider mites” for “Panonychus citri”, “kidney bean plant” for “mandarin orange”, “the” for “the corrected”

Tetranychus urticae = assay: Test Example 10: efficacy test against Tetranychus urticae (soil irrigation test); assay type: in vivo; conditions: 25 ml of 400 ppm, strawberry seedling, 19 days after inoculation
Method: as §2
The emulsion (I) was diluted with tap water to prepare a drug solution having a concentration of 400 ppm. A plastic potted strawberry seedling was subjected to a plant foot irrigation treatment with 25 ml of the drug solution, and placed in a thermostatic chamber at a temperature of 25° C. and a humidity of 60%. Three days after the irrigation treatment, 15 adult females of Tetranychus urticae were inoculated on each seedling. The number of surviving insects 19 days after inoculation was investigated, and the control value was obtained by the following formula. The test was repeated twice. Control value (%)=100−{(Nt)/(Nc)×100}
The letters in the formula represent the following.
Nc: Number of surviving insects in the untreated group
Nt: Number of surviving insects in the treated group

| Structure (SMILES) | Cucumber; 1.5-leaf stage After 14 days Leaf Phytotoxicity index (cucumber plants; Repetition A) | Cucumber; 1.5-leaf stage After 14 days Leaf Phytotoxicity index (cucumber plants; Repetition B) | Eggplant; 6- to 7-leaf stage After 14 days Leaf Phytotoxicity index (eggplants; Repetition A) | Eggplant; 6- to 7-leaf stage After 14 days Leaf Phytotoxicity index (eggplants; Repetition B) | insecticidal rate, Low-susceptible Panonychus citri from Wakayama Prefecture ([1]; 9.4 ppm) [%] | insecticidal rate, Low-susceptible Panonychus citri from Wakayama Prefecture ([1]; 37.5 ppm) [%] | insecticidal rate, Low-susceptible Tetranychus urticae 1 from Nagano Prefecture ([3]; 9.4 ppm) [%] | insecticidal rate, Low-susceptible Tetranychus urticae 2 from Chiba Prefecture ([3]; 9.4 ppm) [%] | insecticidal rate, Low-susceptible Tetranychus urticae 2 from Nagano Prefecture ([3]; 9.4 ppm) [%] | insecticidal rate, Low-susceptible Tetranychus urticae from Aomori Prefecture ([3]; 9.4 ppm) [%] | insecticidal rate, Low-susceptible Tetranychus urticae from Fukuoka Prefecture ([3]; 9.4 ppm) [%] | insecticidal rate, Low-susceptible Tetranyclus urticae 1 from Chiba Prefecture ([3]; 9.4 ppm) [%] | insecticidal rate, Low-susceptible Tetranychus urticae 1 from Nagano Prefecture ([3]; 37.5 ppm) [%] | insecticidal rate, Low-susceptible Tetranychus urticae 2 from Chiba Prefecture ([3]; 37.5 ppm) [%] | insecticidal rate, Low-susceptible Tetranychus urticae 2 from Nagano Prefecture ([3]; 37.5 ppm) [%] | insecticidal rate, Low-susceptible Tetranychus urticae from Aomori Prefecture ([3]; 37.5 ppm) [%] | insecticidal rate, Low-susceptible Tetranychus urticae from Fukuoka Prefecture ([3]; 37.5 ppm) [%] | insecticidal rate, Low-susceptible Tetranyclus urticae 1 from Chiba Prefecture ([3]; 37.5 ppm) [%] | other results |
| --- | --- | --- | --- | --- | --- | --- | --- | --- | --- | --- | --- | --- | --- | --- | --- | --- | --- | --- | --- |
| CCN(Oc1cc(Br)cc(C(F)(F)F)c1)C(=O)NC(C)(C)C(=O)NCC(F)(F)F [Compound 1-1, 2-{3-[3-Bromo-5-(trifluoromethyl)phenoxy]-3-ethylureido}-2-methyl-N-(2,2,2-trifluoroethyl)propanamide] | 0 | 0 | 0 | 0 | 99 | 100 | 100 | 97 | 99 | 93 | 96 | 100 | 100 | 100 | 100 | 100 | 99 | 100 | phytotoxicity on cucumber plants (cucumber plants; 14 days): no phytotoxicity; phytotoxicity on eggplants (eggplants; 14 days): no phytotoxicity; efficacy against all drug resistant strains of spider mites [2]: ≥ 90; insecticidal rate, Low-susceptible Tetranychus urticae from Shizuoka Prefecture ([3]; 9.4 ppm): 96%; insecticidal rate, Low-susceptible Tetranychus urticae from Shizuoka Prefecture ([3]; 37.5 ppm): 100%; control value against Tetranychus urticae (Tetranychus urticae): ≥ 90% |
| CCN(Oc1cc(Cl)cc(Br)c1)C(=O)NC(C)(C)C(=O)NCC(F)(F)F [Compound (D)] | 5 | 7 | 3 | 3 |  |  | 73 | 72 | 45 |  |  | 32 | 99 | 87 | 96 |  |  | 77 |  |
| CCN(Oc1cc(Br)nc(Br)c1)C(=O)NC(C)(C)C(=O)NCC(F)(F)F [Compound (G)] | 2 | 2 | 2 | 2 | 60 | 95 | 78 | 58 | 70 | 66 |  | 53 | 96 | 91 | 88 | 97 |  | 98 |  |
| CCN(Oc1ccnc(C(F)(F)F)c1)C(=O)NC(C)(C)C(=O)NCC(F)(F)F [Compound (H)] |  |  | 2 | 2 | 78 | 96 |  |  |  |  | 45 |  |  |  |  |  | 96 |  |  |
